Where a SMILES comes first, the peptide text is derived from it. Bridges are numbered along the chain shown (N, C = ends). [ ]: non-standard residue; d: D form. hArg = N=C(N)NCCCC[C@H](N)C(=O)O; Mpa = O=C(O)CCS
Assays:
M21 melanoma cells = assay: Cell adhesion assay: 35S-methionine labelled cells on vitronectin-coated plates; type: cell-based; conditions: for effect on cell adhesion / attachment to vitronectin (in words): M21 melanoma cells, vitronectin-coated plates
Procedure: M21 melanoma cells were labelled with ^35S-methionine, and then added to vitronectin-coated plates in the presence of the indicated concentrations of purified snake venom peptides. Cell attachment was measured by solubilizing the cells remaining after an incubation and wash, as previously describe.

GP IIb-IIIa = target: T1, GP IIb-IIIa (Homo sapiens, UniProt P05106+P08514); assay: Plate assay: inhibition of fibrinogen binding to immobilized GP IIb-IIIa; conditions: for differential: inhibiting the binding of fibrinogen to GP IIb-IIIa as compared to vitronectin to vitronectin receptor (in words): plate assays
T1 construct: from tissue
T1 sequence (P08514 32-887 limits assumed): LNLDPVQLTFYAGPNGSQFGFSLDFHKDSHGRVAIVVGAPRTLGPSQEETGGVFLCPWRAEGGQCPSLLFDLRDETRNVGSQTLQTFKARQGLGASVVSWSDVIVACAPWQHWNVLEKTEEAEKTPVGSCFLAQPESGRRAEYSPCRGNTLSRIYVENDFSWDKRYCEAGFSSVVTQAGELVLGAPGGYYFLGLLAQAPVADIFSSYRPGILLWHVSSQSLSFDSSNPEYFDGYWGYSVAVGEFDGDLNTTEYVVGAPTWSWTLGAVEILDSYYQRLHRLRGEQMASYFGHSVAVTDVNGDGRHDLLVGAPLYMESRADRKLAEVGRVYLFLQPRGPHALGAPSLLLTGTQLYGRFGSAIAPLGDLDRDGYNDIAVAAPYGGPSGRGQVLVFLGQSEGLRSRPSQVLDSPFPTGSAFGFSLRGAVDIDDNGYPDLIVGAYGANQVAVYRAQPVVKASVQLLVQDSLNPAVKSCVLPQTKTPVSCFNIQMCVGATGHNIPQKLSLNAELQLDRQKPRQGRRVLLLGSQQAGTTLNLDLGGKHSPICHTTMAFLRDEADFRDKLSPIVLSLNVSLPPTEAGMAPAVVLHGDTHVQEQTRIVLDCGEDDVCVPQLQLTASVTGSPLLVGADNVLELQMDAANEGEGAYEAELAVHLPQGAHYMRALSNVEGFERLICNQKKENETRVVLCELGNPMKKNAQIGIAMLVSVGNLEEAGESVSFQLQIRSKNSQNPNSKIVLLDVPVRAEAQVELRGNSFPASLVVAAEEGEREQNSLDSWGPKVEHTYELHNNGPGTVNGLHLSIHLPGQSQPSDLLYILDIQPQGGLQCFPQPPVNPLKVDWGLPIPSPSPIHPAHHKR
T1 sequence (P08514 891-1039 limits assumed): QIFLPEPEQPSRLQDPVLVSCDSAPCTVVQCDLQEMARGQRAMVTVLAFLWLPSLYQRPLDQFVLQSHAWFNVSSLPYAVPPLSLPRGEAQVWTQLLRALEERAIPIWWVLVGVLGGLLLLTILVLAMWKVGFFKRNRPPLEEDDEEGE
T1 sequence (P05106 27-788): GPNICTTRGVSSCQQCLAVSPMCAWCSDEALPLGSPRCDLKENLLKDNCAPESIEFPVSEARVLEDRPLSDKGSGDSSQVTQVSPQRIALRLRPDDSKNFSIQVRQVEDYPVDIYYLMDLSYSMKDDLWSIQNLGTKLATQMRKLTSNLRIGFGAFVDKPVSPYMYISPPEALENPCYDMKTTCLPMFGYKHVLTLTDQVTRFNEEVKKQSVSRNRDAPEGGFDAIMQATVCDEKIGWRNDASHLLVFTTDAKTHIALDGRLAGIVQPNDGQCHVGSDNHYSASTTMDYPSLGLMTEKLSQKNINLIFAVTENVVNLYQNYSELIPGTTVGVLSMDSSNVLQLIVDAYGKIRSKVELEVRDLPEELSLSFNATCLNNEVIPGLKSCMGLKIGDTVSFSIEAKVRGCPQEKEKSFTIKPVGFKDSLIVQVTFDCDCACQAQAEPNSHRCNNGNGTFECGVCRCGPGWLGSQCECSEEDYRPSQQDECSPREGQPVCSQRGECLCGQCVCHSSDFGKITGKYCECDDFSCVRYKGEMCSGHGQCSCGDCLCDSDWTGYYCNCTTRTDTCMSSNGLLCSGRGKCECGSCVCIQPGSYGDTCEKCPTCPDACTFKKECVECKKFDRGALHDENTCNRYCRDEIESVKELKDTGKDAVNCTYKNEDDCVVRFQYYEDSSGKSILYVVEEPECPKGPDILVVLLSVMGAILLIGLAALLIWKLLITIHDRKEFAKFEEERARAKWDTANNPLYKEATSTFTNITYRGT
Procedure: In the assay, GP IIb-IIIa, prepared in purified form, for example as described by Fitzgerald, L.A., et al., Anal Biochem (1985) 151:169-177, incorporated herein by reference, is coated onto a solid support such as beads, test tubes, or microtiter plates. The coated support is then contacted with fibrinogen and with the test material and incubated for a sufficient time to permit maximal binding of fibrinogen to the immobilized GP IIb-IIIa. Fibrinogen is typically provided at a concentration of about 5-50 nM and the test material can, if desired, be added at a series of dilutions. Typical incubations are 2-4 hr at 35°C, the time and temperature being interdependent.
After incubation, the solution containing the fibrinogen and test material is removed and the level of binding of fibrinogen measured by quantitating bound fibrinogen to GP IIb-IIIa. Any suitable means of detection can be used, but it is convenient to employ labeled fibrinogen, for example using radioactive, fluorescent or biotinylated labels. Such methods are well known and need not be elaborated here.
Assessment of the results is aided by employing a control sample, usually identical to the test sample except that the test substance is absent. In this case, percent inhibition may be calculated using the basis, so that % inhibition =(control - test)/(control)x 100. [formula] Other measures of inhibition effectiveness, such as IC50, can also be used.

[1] = target: ADP-induced human platelet aggregation (Homo sapiens, UniProt P05106+P08514); assay: Standard platelet aggregation inhibition assay; type: cell-based
Sequence of ADP-induced human platelet aggregation (P08514 32-1039): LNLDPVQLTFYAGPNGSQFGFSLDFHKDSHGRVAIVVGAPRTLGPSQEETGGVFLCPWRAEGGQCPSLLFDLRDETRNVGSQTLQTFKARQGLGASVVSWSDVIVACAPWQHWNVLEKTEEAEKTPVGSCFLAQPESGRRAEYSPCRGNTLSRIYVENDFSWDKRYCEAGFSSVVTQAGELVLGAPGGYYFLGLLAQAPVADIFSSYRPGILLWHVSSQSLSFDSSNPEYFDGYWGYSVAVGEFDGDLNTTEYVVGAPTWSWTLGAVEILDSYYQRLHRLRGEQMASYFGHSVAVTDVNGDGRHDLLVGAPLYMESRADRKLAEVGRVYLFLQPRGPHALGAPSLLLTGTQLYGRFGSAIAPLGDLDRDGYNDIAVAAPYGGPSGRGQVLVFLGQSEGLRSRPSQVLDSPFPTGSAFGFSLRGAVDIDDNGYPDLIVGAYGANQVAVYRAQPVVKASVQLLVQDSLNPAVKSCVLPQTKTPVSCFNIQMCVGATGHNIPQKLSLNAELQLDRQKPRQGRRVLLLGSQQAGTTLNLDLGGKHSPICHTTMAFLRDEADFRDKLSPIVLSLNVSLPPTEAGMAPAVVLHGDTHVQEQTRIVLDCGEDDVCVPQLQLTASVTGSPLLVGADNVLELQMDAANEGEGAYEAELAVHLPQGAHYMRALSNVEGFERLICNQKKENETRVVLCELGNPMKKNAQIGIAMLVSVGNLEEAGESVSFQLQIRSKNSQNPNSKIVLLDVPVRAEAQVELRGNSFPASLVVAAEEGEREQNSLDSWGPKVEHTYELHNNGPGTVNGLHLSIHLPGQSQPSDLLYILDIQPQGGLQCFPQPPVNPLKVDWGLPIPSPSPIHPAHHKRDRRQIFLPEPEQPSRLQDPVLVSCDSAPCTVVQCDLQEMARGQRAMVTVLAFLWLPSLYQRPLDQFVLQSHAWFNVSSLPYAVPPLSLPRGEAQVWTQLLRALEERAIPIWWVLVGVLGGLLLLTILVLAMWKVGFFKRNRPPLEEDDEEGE
Sequence of ADP-induced human platelet aggregation (P05106 27-788): as the sequence (P05106 27-788) above
Source text: In addition to the above plate assays, other assays for platelet aggregation inhibition activity and related activities are also available, as set forth above. In summary, a list of commonly employed assays is as follows: • 1. The plate assays utilizing specific receptors described in the previous paragraphs; • 2. Standard assays directly applied to platelet aggregation, such as those described by Gann, Z.-R., et al., J Biol Chem (1988) 263:19827-19832; Huang, T.F., et al., J Biol Chem (1987) 262:16157-16163; Biochemistry (1989) 28:661-666, cited above and incorporated herein by reference; • 3. An in vivo thrombosis model in dogs as described by Folts, J.D., et al., Circulation (1976) 54:365; and • 4. Effect on cell adhesion using S35 methionine-labeled cells as described hereinbelow in Example 10.
IC50 values for the analogs of the invention in this assay are as follows:
A solution was formed in 1.0 M citric acid of greater than 95% pure cyclic form of Mpr-L-homoarginine-Gly-Asp-Trp-Pro-Cys-NH2 • acetate polypeptide (I) at a concentration of up to 200 mg per ml of solution. This solution was diluted to the desired final peptide concentration as follows: This solution was first diluted to about 85% of the final volume with water. The pH of the solution was adjusted to 5.0-5.5 using sodium hydroxide. The solution was then diluted to the final volume with water. Compositions having a concentration of (I) of 0.5 mg/ml and 5.0 mg/ml were formulated and evaluated for stability by HPLC, UV and visual inspection as described in Example 1. The compositions were also evaluated for platelet aggregation inhibiting activity using the assay described above.

[2] = Storage stability of polypeptide in citrate buffer solution, analysed by reversed phase HPLC; type: physicochemical; parameters: key: % of main peak of original polypeptide found by HPLC; conditions: 25 mM citrate buffer pH 5.25, about 1 mg/mL
[3] = as above; type: physicochemical
Procedure: One ml aliquots of the above solution of polypeptide in citrate buffer were sealed in borosilicate glass ampules under sterile conditions and stored at a constant temperature. Test sample ampules from each pH and temperature condition 4°C, 50°C and 70°C were removed periodically, visually assessed and then analyzed separately by HPLC using a mobile phase comprising acetonitrile (MeCN) and 0.1% trifluoroacetic (TFA) in water. This stability was evaluated by conventional assay methods applicable to purity, weight or size of polypeptides. These included not only visual evaluations, such as discoloration, transparency and precipitation, and included assays normally applied to separate polypeptides from each other and from other materials by reversed phase high performance liquid chromatography (HPLC).
Results of these experiments are set forth in Table 1 in which the stability is expressed in terms of the percentage of main peak of original polypeptide found in the sample analyzed by HPLC. The composition was also found to be normal on visual evaluation. […]

vitronectin receptor = vitronectin receptor (Homo sapiens, UniProt P05106+P06756); assay: Plate assay: inhibition of vitronectin binding to vitronectin receptor; conditions: at concentrations up to 1 uM
Sequence of vitronectin receptor (P06756 31-889 limits assumed): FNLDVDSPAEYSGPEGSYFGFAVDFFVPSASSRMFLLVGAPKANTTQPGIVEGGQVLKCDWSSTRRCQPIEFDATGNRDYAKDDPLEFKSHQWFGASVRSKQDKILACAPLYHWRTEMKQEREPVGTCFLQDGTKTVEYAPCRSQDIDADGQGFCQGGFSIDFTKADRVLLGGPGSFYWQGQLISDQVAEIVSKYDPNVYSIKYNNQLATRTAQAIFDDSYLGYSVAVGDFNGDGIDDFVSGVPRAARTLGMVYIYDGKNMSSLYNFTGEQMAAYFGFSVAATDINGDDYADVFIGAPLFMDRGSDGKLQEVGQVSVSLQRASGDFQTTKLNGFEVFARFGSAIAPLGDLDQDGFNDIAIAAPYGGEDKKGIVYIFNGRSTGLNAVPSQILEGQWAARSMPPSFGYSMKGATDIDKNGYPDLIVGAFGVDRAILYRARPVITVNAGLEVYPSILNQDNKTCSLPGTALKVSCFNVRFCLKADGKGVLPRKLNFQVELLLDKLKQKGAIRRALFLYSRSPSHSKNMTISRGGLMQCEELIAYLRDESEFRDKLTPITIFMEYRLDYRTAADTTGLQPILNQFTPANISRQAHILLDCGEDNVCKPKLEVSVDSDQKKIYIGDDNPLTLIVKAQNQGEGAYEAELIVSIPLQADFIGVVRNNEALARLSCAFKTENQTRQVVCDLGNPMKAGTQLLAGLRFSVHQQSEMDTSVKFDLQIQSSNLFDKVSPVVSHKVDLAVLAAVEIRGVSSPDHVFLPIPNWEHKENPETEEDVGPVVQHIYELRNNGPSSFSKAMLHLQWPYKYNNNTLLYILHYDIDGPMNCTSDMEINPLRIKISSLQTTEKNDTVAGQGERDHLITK
Sequence of vitronectin receptor (P06756 891-1048 limits assumed): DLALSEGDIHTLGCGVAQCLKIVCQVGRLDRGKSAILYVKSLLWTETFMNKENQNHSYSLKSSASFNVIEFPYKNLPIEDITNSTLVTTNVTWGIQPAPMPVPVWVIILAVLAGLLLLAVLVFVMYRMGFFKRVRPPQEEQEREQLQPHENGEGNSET
Sequence of vitronectin receptor (P05106 27-788): as the sequence (P05106 27-788) above
Source text: The PAI assay systems further include characterization of the PAI specificity by binding inhibition assays identical to that above but substituting other adhesive proteins for Fg and other receptors for GP IIb-IIIa. In particular, inhibition of the binding of vitronectin to the vitronectin receptor; fibronectin to the fibronectin receptor; fibronectin to GP IIb-IIIa and fibrinogen and/or vWF to GP IIb-IIIa can be assessed. The adhesive protein and receptors for these assays are available in the art.

## C[C@H](NC(=O)[C@@H]1CSSC[C@H](NC(=O)CN)C(=O)NCC(=O)N[C@@H](CCCCN)C(=O)NCC(=O)N[C@@H](CC(=O)O)C(=O)N[C@@H](Cc2c[nH]c3ccccc23)C(=O)N2CCC[C@H]2C(=O)N1)C(N)=O [Analog #3, G-C-G-K-G-D-W-P-C-A-NH2]
M21 melanoma cells; up to 60 uM
  effect on M21 cell attachment to vitronectin (in words): ineffective

## C[C@H](NC(=O)[C@@H]1CSSC[C@H](NC(=O)CN)C(=O)N[C@@H](CCCCN)C(=O)NCC(=O)N[C@@H](CC(=O)O)C(=O)N[C@@H](Cc2c[nH]c3ccccc23)C(=O)N2CCC[C@H]2C(=O)N1)C(N)=O [Analog #4] (H-GCKGDWPCA-NH2; disulfide 2-8)
GP IIb-IIIa
  differential: inhibiting the binding of fibrinogen to GP IIb-IIIa as compared to vitronectin to vitronectin receptor (in words): highest differential

## NCCCC[C@@H]1NC(=O)CNC(=O)[C@@H](N)CSSC[C@@H](C(N)=O)NC(=O)[C@@H]2CCCN2C(=O)[C@H](Cc2c[nH]c3ccccc23)NC(=O)[C@H](CC(=O)O)NC(=O)CNC1=O [Analog #5] (H-CGKGDWPC-NH2; disulfide 1-8)
[1]
  platelet aggregation inhibition activity (in words): excellent platelet aggregation inhibition activities
GP IIb-IIIa
  differential: inhibiting the binding of fibrinogen to GP IIb-IIIa as compared to vitronectin to vitronectin receptor (in words): quite specific

## C[C@H](NC(=O)[C@@H]1CSSC[C@H](NC(=O)CN)C(=O)N[C@@H](CCCCN)C(=O)NCC(=O)N[C@@H](CC(=O)O)C(=O)N[C@@H](Cc2c[nH]c3ccccc23)C(=O)N1)C(N)=O [Analog #7] (H-GCKGDWCA-NH2; disulfide 2-7)
[1]
  platelet aggregation inhibition activity (in words): excellent platelet aggregation inhibition activities
GP IIb-IIIa
  differential: inhibiting the binding of fibrinogen to GP IIb-IIIa as compared to vitronectin to vitronectin receptor (in words): quite specific

## NCCCC[C@@H]1NC(=O)CCSSC[C@@H](C(N)=O)NC(=O)[C@@H]2CCCN2C(=O)[C@H](Cc2c[nH]c3ccccc23)NC(=O)[C@H](CC(=O)O)NC(=O)CNC1=O [Analog #19, Mpr-K-G-D-W-P-C-NH2] ([Mpa]KGDWPC-NH2; disulfide 1-7 (inferred))
[1]
  platelet aggregation inhibition activity (in words): good platelet aggregation inhibition activity

## N=C(N)NCCCC[C@@H]1NC(=O)CCSSC[C@@H](C(N)=O)NC(=O)[C@@H]2CCCN2C(=O)[C@H](Cc2c[nH]c3ccccc23)NC(=O)[C@H](CC(=O)O)NC(=O)CNC1=O [Analog #60, Mpr-(Har)-G-D-W-P-C-NH2] ([Mpa][hArg]GDWPC-NH2; disulfide 1-7 (inferred))
[1]
  platelet aggregation inhibition activity (in words): efficient at vanishingly small concentrations
M21 melanoma cells
  effect on cell adhesion / attachment to vitronectin (in words): relatively less effective

## C[C@H](NC(=O)[C@@H]1CSSC[C@H](NC(=O)CN)C(=O)NCC(=O)N[C@@H](CCCNC(=N)N)C(=O)NCC(=O)N[C@@H](CC(=O)O)C(=O)N[C@@H](Cc2c[nH]c3ccccc23)C(=O)N2CCC[C@H]2C(=O)N1)C(N)=O [reference compound] (H-GCGRGDWPCA-NH2; disulfide 2-9)
M21 melanoma cells
  effect on cell adhesion / attachment to vitronectin (in words): potent inhibitors of cell attachment

## Mpr-Ala-(Har)-G-D-W-P-C-NH2
[2]; 5°C, 0 days
  stability by HPLC: 99.6
[2]; 5°C, 29 days
  stability by HPLC: 98.1
[2]; 5°C, 60 days
  stability by HPLC: 98.3
[2]; 5°C, 90 days
  stability by HPLC: 97.3
[2]; 30°C, 29 days
  stability by HPLC: 97.3
[2]; 30°C, 60 days
  stability by HPLC: 97.3
[2]; 30°C, 90 days
  stability by HPLC: 96.5
[2]; 45°C, 29 days
  stability by HPLC: 95.4
[2]; 45°C, 60 days
  stability by HPLC: 92.6
[2]; 45°C, 90 days
  stability by HPLC: 90.6

## Mpr-L-homoarginine-Gly-Asp-Trp-Pro-Cys-NH2 • acetate
[3]; Example 1: 2 mg/ml in citrate buffer pH 5.00 and 5.50, about 4°C
  stability of liquid solution (in words): very stable
[3]; Example 1: 2 mg/ml in citrate buffer pH 5.00 and 5.50, up to about 50°C
  stability of liquid solution (in words): still stable
[3]; Example 1: citrate buffer pH 5.00 and 5.50, 70°C, in comparison to citrate buffer solutions at pH 6.0
  stability of liquid solution (in words): much more stable

## [E^28L^41C^64]barbourin (28-73):E-C-A-D-G-L-C-C-D-O-CRFLKKGTVCRVAKGDWNDDTCTG-O-S-C-D-C-P-R-N-G-L-Y-G [Analog #1]
Vitronectin receptor
  affinity for VnR: relative lack of affinity
[1]
  platelet aggregation inhibition activity (in words): potent inhibitors of platelet aggregation
GP IIb-IIIa
  affinity for GP IIb-IIIa (ability to inhibit the binding of fibrinogen to GP IIb-IIIa): high affinity
M21 melanoma cells
  effect on cell adhesion / attachment to vitronectin (in words): Neither barbourin nor Peptide 1 (truncated barbourin) had a significant effect

Reference: patent publication EP0639202B1, “STABLE POLYPEPTIDE COMPOSITION” (COR THERAPEUTICS, INC., priority 1992, dated 1993)
